This is an account of results in patent US20250205344A1, “2,4-DIOXOTETRAHYDROPYRIMIDINYL DERATIVES AS DEGRONS IN PROTACS” (GLAXOSMITHKLINE INTELLECTUAL PROPERTY DEVELOPMENT LIMITED, priority 2022, published 2025).

The target of this assay is T1, Androgen Receptor (Homo sapiens, UniProt P10275, T878A).
T1 construct: the AR gene was modified, using CRISPR/Cas9 editing, so the expressed AR protein included an 11 amino acid HiBiT tag; endogenous in cells; host or cells: clonal LnCaP-derived line, AR gene edited by CRISPR/Cas9
T1 sequence (P10275 whole entry T878A): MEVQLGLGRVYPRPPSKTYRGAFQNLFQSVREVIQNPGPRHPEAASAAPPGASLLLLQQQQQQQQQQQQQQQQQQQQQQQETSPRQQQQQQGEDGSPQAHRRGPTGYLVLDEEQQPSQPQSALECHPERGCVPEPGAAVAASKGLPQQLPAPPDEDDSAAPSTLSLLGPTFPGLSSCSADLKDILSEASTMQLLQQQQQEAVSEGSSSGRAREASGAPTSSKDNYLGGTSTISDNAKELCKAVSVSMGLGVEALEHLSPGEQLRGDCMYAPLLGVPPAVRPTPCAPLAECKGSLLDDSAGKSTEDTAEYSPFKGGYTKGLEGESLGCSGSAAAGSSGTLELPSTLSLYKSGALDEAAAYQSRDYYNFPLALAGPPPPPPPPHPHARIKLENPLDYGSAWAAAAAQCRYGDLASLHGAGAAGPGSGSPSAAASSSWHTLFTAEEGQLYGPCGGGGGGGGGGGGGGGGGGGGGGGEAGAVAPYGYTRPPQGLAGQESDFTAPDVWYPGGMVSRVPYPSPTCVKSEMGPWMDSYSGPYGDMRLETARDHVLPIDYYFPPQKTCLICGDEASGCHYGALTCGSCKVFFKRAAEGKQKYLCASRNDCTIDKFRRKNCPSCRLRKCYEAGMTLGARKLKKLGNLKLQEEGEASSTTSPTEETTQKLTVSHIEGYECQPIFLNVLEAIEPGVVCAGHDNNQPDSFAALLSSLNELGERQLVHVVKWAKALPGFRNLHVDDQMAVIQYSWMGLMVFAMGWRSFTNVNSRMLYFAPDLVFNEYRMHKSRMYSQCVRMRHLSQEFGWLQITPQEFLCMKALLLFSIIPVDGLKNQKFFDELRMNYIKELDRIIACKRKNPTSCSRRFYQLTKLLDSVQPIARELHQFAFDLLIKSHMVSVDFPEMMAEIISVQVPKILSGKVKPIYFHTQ
T1 sequence (Q96SW2 whole entry partner): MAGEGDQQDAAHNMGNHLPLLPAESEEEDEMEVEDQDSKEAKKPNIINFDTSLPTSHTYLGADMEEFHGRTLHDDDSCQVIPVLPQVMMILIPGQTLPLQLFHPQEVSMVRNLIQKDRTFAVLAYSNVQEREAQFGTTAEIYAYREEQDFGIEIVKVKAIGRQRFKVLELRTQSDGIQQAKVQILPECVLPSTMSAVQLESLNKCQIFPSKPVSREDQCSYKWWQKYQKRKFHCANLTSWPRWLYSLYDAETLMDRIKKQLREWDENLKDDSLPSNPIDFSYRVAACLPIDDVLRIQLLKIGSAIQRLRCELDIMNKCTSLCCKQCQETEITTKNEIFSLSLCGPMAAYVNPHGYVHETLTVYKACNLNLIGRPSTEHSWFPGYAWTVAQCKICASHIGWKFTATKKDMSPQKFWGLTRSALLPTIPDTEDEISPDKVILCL
T1 sequence (Q16531 whole entry partner): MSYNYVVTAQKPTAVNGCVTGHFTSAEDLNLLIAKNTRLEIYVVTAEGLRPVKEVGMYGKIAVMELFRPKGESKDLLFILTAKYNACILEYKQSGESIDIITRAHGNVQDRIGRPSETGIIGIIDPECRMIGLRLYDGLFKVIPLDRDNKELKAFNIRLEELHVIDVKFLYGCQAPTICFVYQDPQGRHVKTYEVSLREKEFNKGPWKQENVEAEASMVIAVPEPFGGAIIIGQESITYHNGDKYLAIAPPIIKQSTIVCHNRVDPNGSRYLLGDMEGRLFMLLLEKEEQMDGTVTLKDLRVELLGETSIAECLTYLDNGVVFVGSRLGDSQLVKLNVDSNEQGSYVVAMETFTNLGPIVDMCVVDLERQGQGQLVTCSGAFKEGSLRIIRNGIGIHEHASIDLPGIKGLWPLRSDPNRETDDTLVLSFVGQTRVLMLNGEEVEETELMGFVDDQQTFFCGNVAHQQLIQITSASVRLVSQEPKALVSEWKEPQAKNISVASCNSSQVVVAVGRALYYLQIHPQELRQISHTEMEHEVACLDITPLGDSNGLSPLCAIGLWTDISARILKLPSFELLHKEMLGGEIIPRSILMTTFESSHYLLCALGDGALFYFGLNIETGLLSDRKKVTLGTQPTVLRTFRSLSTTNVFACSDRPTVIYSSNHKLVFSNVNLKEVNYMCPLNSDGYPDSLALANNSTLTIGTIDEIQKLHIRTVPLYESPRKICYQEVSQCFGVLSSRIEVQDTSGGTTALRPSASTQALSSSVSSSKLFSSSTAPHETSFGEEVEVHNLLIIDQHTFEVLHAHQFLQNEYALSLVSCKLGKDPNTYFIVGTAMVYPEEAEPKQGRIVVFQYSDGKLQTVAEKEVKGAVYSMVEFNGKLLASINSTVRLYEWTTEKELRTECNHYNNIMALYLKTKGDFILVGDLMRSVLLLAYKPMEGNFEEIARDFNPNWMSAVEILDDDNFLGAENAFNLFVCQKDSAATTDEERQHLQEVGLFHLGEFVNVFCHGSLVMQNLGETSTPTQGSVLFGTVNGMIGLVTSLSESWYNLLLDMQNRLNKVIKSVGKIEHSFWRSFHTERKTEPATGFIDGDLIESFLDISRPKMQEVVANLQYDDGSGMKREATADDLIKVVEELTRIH
Briefly: Androgen Receptor Degradation Assay (Nano-Glo HiBiT). The assay is classed as cell-based. The settings on record: LNCaP, 18 h, HiBiT-tagged AR in human LnCaP cells, read-out: mean asymptote max. The method in brief:
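LnCaP cells with CRISPR-knocked-in N-terminal HiBiT-tagged AR (10,000/well) treated 18 h at 37 °C with PROTACs over 11 threefold concentrations; lytic HiBiT luminescence normalised to DMSO (0%) and cell-free (100%) controls. Relative DC50 = 4-parameter fit inflection; absolute DC50 = 50% degradation interpolation; Dmax = maximum observed degradation.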
(In general: HiBiT is a short tag that completes a luciferase, so light tracks the accessible tagged protein.)

Where a name gives a salt, the structure may show the parent alone.

`N#Cc1ccc(O[C@H]2CC[C@H](NC(=O)c3ccc(N4CCC(CN5CCC(n6ncc7c(N8CCC(=O)NC8=O)nccc76)CC5)CC4)cc3)CC2)cc1Cl` [EAR199, N-((1r,4r)-4-(3-Chloro-4-cyanophenoxy)cyclohexyl)-4-(4-((4-(4-(2,4-dioxotetrahydropyrimidin-1(2H)-yl)-1H-pyrazolo[4,3-c]pyridin-1-yl)piperidin-1-yl)methyl)piperidin-1-yl)benzamide]: the Dmax is no less than 50%.

For `N#Cc1ccc(O[C@H]2CC[C@H](NC(=O)c3ccc(N4CCC(CN5CCC(n6ccc7c(N8CCC(=O)NC8=O)cccc76)CC5)CC4)nc3)CC2)cc1Cl` [EAR13, N-((1r,4r)-4-(3-Chloro-4-cyanophenoxy)cyclohexyl)-6-(4-((4-(4-(2,4-dioxotetrahydropyrimidin-1(2H)-yl)-1H-indol-1-yl)piperidin-1-yl)methyl)piperidin-1-yl)nicotinamide], the Dmax is no less than 50%.

As to `C[C@@H]1CN(c2ccc(C#N)c(Cl)c2)[C@@H](C)CN1C(=O)Nc1cnc(N2CCC(CN3CCC(n4ccc5c(N6CCC(=O)NC6=O)cncc54)CC3)CC2)nc1` [EAR106, (2R,5S)-4-(3-Chloro-4-cyanophenyl)-N-(2-(4-((4-(4-(2,4-dioxotetrahydropyrimidin-1(2H)-yl)-1H-pyrrolo[2,3-c]pyridin-1-yl)piperidin-1-yl)methyl)piperidin-1-yl)pyrimidin-5-yl)-2,5-dimethylpiperazine-1-carboxamide], the Dmax is no less than 50%.

Take `N#Cc1ccc(O[C@H]2CC[C@H](NC(=O)c3ccc(N4CCC(CN5CCC[C@@](F)(Cn6ccc7c(N8CCC(=O)NC8=O)cccc76)C5)CC4)nn3)CC2)cc1Cl` [EAR159, N-((1r,4r)-4-(3-Chloro-4-cyanophenoxy)cyclohexyl)-6-(4-(((S)-3-((4-(2,4-dioxotetrahydropyrimidin-1(2H)-yl)-1H-indol-1-yl)methyl)-3-fluoropiperidin-1-yl)methyl)piperidin-1-yl)pyridazine-3-carboxamide]: the Dmax was no less than 50%.

For `CC(C)n1ccc2c(N3CCC(=O)NC3=O)cc(C(=O)N(C)CC3CCN(CCCOc4ccc(C(=O)N[C@H]5CC[C@H](Oc6ccc(C#N)c(Cl)c6)CC5)nc4)CC3)cc21` [EAR61, N-((1-(3-((6-(((1r,4r)-4-(3-Chloro-4-cyanophenoxy)cyclohexyl)carbamoyl)pyridin-3-yl)oxy)propyl)piperidin-4-yl)methyl)-4-(2,4-dioxotetrahydropyrimidin-1(2H)-yl)-1-isopropyl-N-methyl-1H-indole-6-carboxamide], the Dmax is no less than 50%.

`N#Cc1ccc(O[C@H]2CC[C@H](NC(=O)c3ccc(N4CCC(CN5CCC(n6ccc7c(N8CCC(=O)NC8=O)c(F)ccc76)CC5)CC4)nn3)CC2)cc1Cl` [EAR170, N-((1r,4r)-4-(3-Chloro-4-cyanophenoxy)cyclohexyl)-6-(4-((4-(4-(2,4-dioxotetrahydropyrimidin-1(2H)-yl)-5-fluoro-1H-indol-1-yl)piperidin-1-yl)methyl)piperidin-1-yl)pyridazine-3-carboxamide, hydrochloride]: the Dmax is no less than 50%.

On to `N#Cc1ccc(O[C@H]2CC[C@H](NC(=O)c3cnc(N4CCC(CN5CCC(n6ncc7c(N8CCC(=O)NC8=O)cccc76)CC5)CC4)cn3)CC2)cc1Cl` [EAR39, N-((1r,4r)-4-(3-Chloro-4-cyanophenoxy)cyclohexyl)-5-(4-((4-(4-(2,4-dioxotetrahydropyrimidin-1(2H)-yl)-1H-indazol-1-yl)piperidin-1-yl)methyl)piperidin-1-yl)pyrazine-2-carboxamide hydrochloride], for which the Dmax was no less than 50%.

`C[C@@H]1CN(c2ccc(C#N)c(Cl)c2)[C@@H](C)CN1C(=O)Nc1ccc(OCCCCN2CCC(n3ccc4c(N5CCC(=O)NC5=O)cncc43)CC2)nc1` [EAR111, (2R,5S)-4-(3-Chloro-4-cyanophenyl)-N-(6-(4-(4-(4-(2,4-dioxotetrahydropyrimidin-1(2H)-yl)-1H-pyrrolo[2,3-c]pyridin-1-yl)piperidin-1-yl)butoxy)pyridin-3-yl)-2,5-dimethylpiperazine-1-carboxamide]: the Dmax is no less than 50%.

On to `CC(C)n1ccc2c(N3CCC(=O)NC3=O)cc(C(=O)N3CCC4(CCCN(Cc5ccc(C(=O)N[C@H]6CC[C@H](Oc7ccc(C#N)c(Cl)c7)CC6)cc5)C4)CC3)cc21` [EAR81, N-((1r,4r)-4-(3-Chloro-4-cyanophenoxy)cyclohexyl)-4-((9-(4-(2,4-dioxotetrahydropyrimidin-1(2H)-yl)-1-isopropyl-1H-indole-6-carbonyl)-2,9-diazaspiro[5.5]undecan-2-yl)methyl)benzamide], for which the Dmax was no less than 50%.

Turning to `N#Cc1ccc(O[C@H]2CC[C@H](NC(=O)c3ccc(N4CCC[C@H](CN5CCC(n6ccc7c(N8CCC(=O)NC8=O)cccc76)CC5)C4)nn3)CC2)cc1Cl` [EAR142, N-((1r,4R)-4-(3-chloro-4-cyanophenoxy)cyclohexyl)-6-((R)-3-((4-(4-(2,4-dioxotetrahydropyrimidin-1(2H)-yl)-1H-indol-1-yl)piperidin-1-yl)methyl)piperidin-1-yl)pyridazine-3-carboxamide], the Dmax is no less than 50%.

On to `CC1(C)[C@H](NC(=O)c2ncc(N3CCC(CN4CCC(n5ccc6c(N7CCC(=O)NC7=O)ccnc65)CC4)CC3)cn2)C(C)(C)[C@H]1Oc1cnc(C#N)c(Cl)c1` [EAR269, N-((1r,3r)-3-((5-Chloro-6-cyanopyridin-3-yl)oxy)-2,2,4,4-tetramethylcyclobutyl)-5-(4-((4-(4-(2,4-dioxotetrahydropyrimidin-1(2H)-yl)-1H-pyrrolo[2,3-b]pyridin-1-yl)piperidin-1-yl)methyl)piperidin-1-yl)pyrimidine-2-carboxamide], for which the Dmax was no less than 50%.

Consider `N#Cc1ccc(O[C@H]2CC[C@H](NC(=O)c3ccc(N4CCC(CN5CCC(n6ccc7c(N8CCC(=O)NC8=O)cncc76)CC5)CC4)nc3)CC2)cc1C(F)(F)F` [AR19, N-((1r,4r)-4-(4-Cyano-3-(trifluoromethyl)phenoxy)cyclohexyl)-6-(4-((4-(4-(2,4-dioxotetrahydropyrimidin-1(2H)-yl)-1H-pyrrolo[2,3-c]pyridin-1-yl)piperidin-1-yl)methyl)piperidin-1-yl)nicotinamide], for which the Dmax is no less than 50%.

Regarding `N#Cc1ccc(O[C@H]2CC[C@H](NC(=O)c3ccc(CCN4CCC(n5ccc6c(N7CCC(=O)NC7=O)cccc65)CC4)cc3)CC2)cc1Cl` [EAR130, N-((1r,4r)-4-(3-Chloro-4-cyanophenoxy)cyclohexyl)-4-(2-(4-(4-(2,4-dioxotetrahydropyrimidin-1(2H)-yl)-1H-indol-1-yl)piperidin-1-yl)ethyl)benzamide], the Dmax is no less than 50%.

For the compound `CC1CN(c2ccc(C(=O)N[C@H]3CC[C@H](Oc4ccc(C#N)c(Cl)c4)CC3)nn2)CCC1CN1CCC(n2ncc3c(N4CCC(=O)NC4=O)cccc32)CC1` (stereo partly shown) [EAR234, N-((1r,4r)-4-(3-chloro-4-cyanophenoxy)cyclohexyl)-6-(4-((4-(4-(2,4-dioxotetrahydropyrimidin-1(2H)-yl)-1H-indazol-1-yl)piperidin-1-yl)methyl)-3-methylpiperidin-1-yl)pyridazine-3-carboxamide], the Dmax was no less than 50%.

Regarding `CC1(C)C(=O)N(c2ccc(C#N)c(C(F)(F)F)c2)C(=S)N1c1ccc(N2CCC(CN3CCC(n4ccc5c(N6CCC(=O)NC6=O)cccc54)CC3)CC2)cc1` [EAR99, 4-(3-(4-(4-((4-(4-(2,4-Dioxotetrahydropyrimidin-1(2H)-yl)-1H-indol-1-yl)piperidin-1-yl)methyl)piperidin-1-yl)phenyl)-4,4-dimethyl-5-oxo-2-thioxoimidazolidin-1-yl)-2-(trifluoromethyl)benzonitrile formate], the Dmax was no less than 50%.

`CC(C)n1ccc2c(N3CCC(=O)NC3=O)cc(C(=O)N3CCN(CC4CCN(c5ccc(C(=O)N[C@H]6C(C)(C)[C@H](Oc7ccc(C#N)c(Cl)c7)C6(C)C)nn5)CC4)CC3)cc21` [EAR78, N-((1r,3r)-3-(3-Chloro-4-cyanophenoxy)-2,2,4,4-tetramethylcyclobutyl)-6-(4-((4-(4-(2,4-dioxotetrahydropyrimidin-1(2H)-yl)-1-isopropyl-1H-indole-6-carbonyl)piperazin-1-yl)methyl)piperidin-1-yl)pyridazine-3-carboxamide]: the Dmax was no less than 50%.

Take `N#Cc1ccc(O[C@H]2CC[C@H](NC(=O)c3ccc(N4CC5(CCC(CN6CCC(n7ncc8c(N9CCC(=O)NC9=O)cccc87)CC6)CC5)C4)nn3)CC2)cc1Cl` [EAR225, N-((1r,4r)-4-(3-chloro-4-cyanophenoxy)cyclohexyl)-6-(7-((4-(4-(2,4-dioxotetrahydropyrimidin-1(2H)-yl)-1H-indazol-1-yl)piperidin-1-yl)methyl)-2-azaspiro[3.5]nonan-2-yl)pyridazine-3-carboxamide]: the Dmax was no less than 50%.

Take `N#Cc1ccc(O[C@H]2CC[C@H](NC(=O)c3ccc(N4CC5(CCC5CN5CCC(n6ncc7c(N8CCC(=O)NC8=O)cccc76)CC5)C4)nn3)CC2)cc1Cl` (stereo partly shown) [EAR236, N-((1r,4r)-4-(3-chloro-4-cyanophenoxy)cyclohexyl)-6-(5-((4-(4-(2,4-dioxotetrahydropyrimidin-1(2H)-yl)-1H-indazol-1-yl)piperidin-1-yl)methyl)-2-azaspiro[3.3]heptan-2-yl)pyridazine-3-carboxamide]: the Dmax was no less than 50%.

As for `N#Cc1ccc(O[C@H]2CC[C@H](NC(=O)c3ccc(N4CCC(CN5CCC(n6ccc7c(N8CCC(=O)NC8=O)nccc76)CC5)CC4)cc3)CC2)cc1Cl` [EAR197, N-((1r,4r)-4-(3-Chloro-4-cyanophenoxy)cyclohexyl)-4-(4-((4-(4-(2,4-dioxotetrahydropyrimidin-1(2H)-yl)-1H-pyrrolo[3,2-c]pyridin-1-yl)piperidin-1-yl)methyl)piperidin-1-yl)benzamide], the Dmax is no less than 50%.
